US8163736B2, “Cytotoxic agents comprising new tomaymycin derivatives” (sanofi-aventis, priority 2006, dated 2012)

How the values were obtained:
Format in all cases: cell-based
A549 = assay: In vitro potency of tomaymycin derivatives, WST-8 surviving fraction, A549; conditions: Homo sapiens, 96 h; A549 cells, incubated 4 days at 37° C., WST-8 read at 450 nm
Procedure: (§1) Samples of free tomaymycin derivative or tomaymycin derivative conjugate are added to a 96-well flat bottomed tissue culture plate and titrated using serial dilutions ranging from 1×10^−12 M to 3×10^−7 M. Antigen positive tumor cells or antigen negative tumor cells are added to the wells in such a way that there are triplicate samples for each drug concentration for each cell line. The plates are incubated at 37° C. in an atmosphere of 5% CO2 for 4 days.
(§2) At the end of the incubation period, 20 μl of the tetrazolium reagent WST-8 (2-(2-methoxy-nitrophenyl)-3-(4-nitrophenyl)-5-(2,4-disulfophenyl)-2-tetrazolium, monosodium salt) is added to each well, and the plates are returned to the incubator for 2 hours. The absorbance in each well of the plates is then measured using the Molecular Devices plate reader at 450 nm. Surviving fraction of cells at each concentration of tomaymycin derivative or conjugate are plotted.

KB = assay: In vitro potency of tomaymycin derivatives, WST-8 surviving fraction, KB; conditions: Homo sapiens, 96 h; KB cells, incubated 4 days at 37° C., WST-8 read at 450 nm
Procedure: as §1, §2

MCF7 = assay: In vitro potency of tomaymycin derivatives, WST-8 surviving fraction, MCF7; conditions: Homo sapiens, 96 h; MCF7 cells, incubated 4 days at 37° C., WST-8 read at 450 nm
Procedure: as §1, §2

SMILES	IC50 (A549) [nM]	IC50 (KB) [nM]	IC50 (MCF7) [nM]
C/C=C1\C[C@H]2C=Nc3cc(OCCC(C)CCOc4cc5c(cc4OC)C(=O)N4C/C(=C/C)C[C@H]4C=N5)c(OC)cc3C(=O)N2C1 [Example 5, 8,8′-[3-methyl-1,5-pentanediylbis(oxy)]-bis[(S)-2-eth-(E)-ylidene-7-methoxy-1,2,3,11a-tetrahydro-5H-pyrrolo[2,1-c][1,4]benzodiazepin-5-one]]	0.07	0.1	0.1
C/C=C1\C[C@H]2C=Nc3cc(OCc4cc(COc5cc6c(cc5OC)C(=O)N5C/C(=C/C)C[C@H]5C=N6)cc(OC)c4)c(OC)cc3C(=O)N2C1 [Example 2, 8,8′-[5-methoxy-1,3-benzenediylbis(methylenoxy)]-bis[(S)-2-eth-(E)-ylidene-7-methoxy-1,2,3,11a-tetrahydro-5H-pyrrolo[2,1-c][1,4]benzodiazepin-5-one]]	< 0.001	< 0.001	< 0.001
C/C=C1\C[C@H]2C=Nc3cc(OCc4cccc(COc5cc6c(cc5OC)C(=O)N5C/C(=C/C)C[C@H]5C=N6)c4)c(OC)cc3C(=O)N2C1 [Example 1, 8,8′-[1,3-benzenediylbis(methylenoxy)]-bis[(S)-2-eth-(E)-ylidene-7-methoxy-1,2,3,11a-tetrahydro-5H-pyrrolo[2,1-c][1,4]benzodiazepin-5-one]]	< 0.001	< 0.001	< 0.001
